Values of other authors in patent publication US10961240B2, “Formulations of a compound modulating kinases” (Plexxikon Inc., priority 2017, dated 2021).

Assays:
[1] = tested on: neurofibromatosis affected mice
microglia = details: sustained after intracerebral hemorrhage
Hodgkin Lymphoma = details: heavily pretreated patient cohort
mouse melanoma models = details: with tumor-specific CD8 T cells
TGCT = details: phase III

In the case of `FC(F)(F)c1ccc(CNc2ccc(Cc3c[nH]c4ncc(Cl)cc34)cn2)cn1` [Compound I], the bone loss [1] is given as “prevented bone loss”, the microglia depletion (microglia) is given as “effectively depleted microglia” and the efficacy (Hodgkin Lymphoma) is given as “modest efficacy”. The safety profile (Hodgkin Lymphoma) was “manageable safety profile”, the “control of tumor outgrowth” value (mouse melanoma models) was “strongly promoted the control of tumor outgrowth” and the tumor growth (MPNST xenograft; MPNST xenograft) was “significant suppression of tumor growth”. The “blockade of receptor tyrosine kinases” value (MPNST xenograft; MPNST xenograft samples) was “sustained blockade of c-Kit, c-Fms and PDGFRβ” and the “primary endpoint: tumor response measured by tumor size reduction” value (TGCT) was “met its primary endpoint”.
